According to ChEMBL document CHEMBL1201861, “Genomics of Drug Sensitity in Cancer screening data, Wellcome Trust Sanger Institute”:

What was measured:
[1] = tested on: LB831-BLC; experiment: cells; format: functional, cell-based, Homo sapiens; settings: Homo sapiens, LB831-BLC;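 further: growth inhibition of LB831-BLC cells, read out with a cell viability assay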
Description: SANGER: Inhibition of human LB831-BLC cell growth in a cell viability assay.

[2] = tested on: EHEB; experiment: cells; format: functional, cell-based; settings: Homo sapiens;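 further: growth inhibition of human EHEB cells, read out with a cell viability assay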
Description: SANGER: Inhibition of human EHEB cell growth in a cell viability assay.

[3] = tested on: RD; experiment: cells; format: functional, cell-based, Homo sapiens; settings: Homo sapiens, RD
Description: SANGER: Inhibition of human RD cell growth in a cell viability assay.

[4] = tested on: MS-1; experiment: cells; format: functional, cell-based; settings: Homo sapiens
Description: SANGER: Inhibition of human MS-1 cell growth in a cell viability assay.

[5] = tested on: LNCaP-Clone-FGC; experiment: cells; format: functional, cell-based, Homo sapiens; settings: Homo sapiens, LNCaP-Clone-FGC
[6] = tested on: NCI-H345; experiment: cells; format: functional, cell-based; settings: Homo sapiens;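 further: growth inhibition of NCI-H345 cells measured with a cell viability assay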
Description: SANGER: Inhibition of human NCI-H345 cell growth in a cell viability assay.

[7] = tested on: NALM-6; experiment: cells; format: functional, cell-based; settings: Homo sapiens;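 further: growth inhibition of NALM-6 cells, read out with a cell viability assay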
Description: SANGER: Inhibition of human NALM-6 cell growth in a cell viability assay.

[8] = tested on: SJRH30; experiment: cells; format: functional, cell-based; settings: Homo sapiens;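 further: growth inhibition of human SJRH30 cells, read out with a cell viability assay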
Description: SANGER: Inhibition of human SJRH30 cell growth in a cell viability assay.

[9] = tested on: L-428; experiment: cells; format: functional, cell-based; settings: Homo sapiens
Description: SANGER: Inhibition of human L-428 cell growth in a cell viability assay.

[10] = tested on: PANC-08-13; experiment: cells; format: functional, cell-based, Homo sapiens; settings: Homo sapiens, PANC-08-13
Description: SANGER: Inhibition of human PANC-08-13 cell growth in a cell viability assay.

[11] = tested on: GCIY; experiment: cells; format: functional, cell-based, Homo sapiens; settings: Homo sapiens, GCIY;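 further: growth inhibition of the human GCIY cell line, read out by a cell viability assay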
Description: SANGER: Inhibition of human GCIY cell growth in a cell viability assay.

[12] = tested on: LS-123; experiment: cells; format: functional, cell-based, Homo sapiens; settings: Homo sapiens, LS-123
[13] = tested on: DG-75; experiment: cells; format: functional, cell-based; settings: Homo sapiens;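 further: growth inhibition of DG-75 cells, read out with a cell viability assay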
Description: SANGER: Inhibition of human DG-75 cell growth in a cell viability assay.

[14] = tested on: LB647-SCLC; experiment: cells; format: functional, cell-based; settings: Homo sapiens;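 further: cell growth inhibition, read out by a viability assay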
Description: SANGER: Inhibition of human LB647-SCLC cell growth in a cell viability assay.

[15] = tested on: IMR-5; experiment: cells; format: functional, cell-based; settings: Homo sapiens;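 further: growth inhibition of human IMR-5 cells, read out with a cell viability assay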
Description: SANGER: Inhibition of human IMR-5 cell growth in a cell viability assay.

[16] = tested on: KU-19-19; experiment: cells; format: functional, cell-based, Homo sapiens; settings: Homo sapiens, KU-19-19
Description: SANGER: Inhibition of human KU-19-19 cell growth in a cell viability assay.

[17] = tested on: TALL-1; experiment: cells; format: functional, cell-based; settings: Homo sapiens;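 further: growth inhibition of cultured human TALL-1 cells, read out by a cell viability assay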
Description: SANGER: Inhibition of human TALL-1 cell growth in a cell viability assay.

[18] = tested on: RL; experiment: cells; format: functional, cell-based; settings: Homo sapiens
Description: SANGER: Inhibition of human RL cell growth in a cell viability assay.

[19] = tested on: U-698-M; experiment: cells; format: functional, cell-based; settings: Homo sapiens
Description: SANGER: Inhibition of human U-698-M cell growth in a cell viability assay.

[20] = tested on: CPC-N; experiment: cells; format: functional, cell-based; settings: Homo sapiens;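 further: growth inhibition of CPC-N cells, with a cell viability assay as the readout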
Description: SANGER: Inhibition of human CPC-N cell growth in a cell viability assay.

[21] = tested on: ECC4; experiment: cells; format: functional, cell-based; settings: Homo sapiens;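 further: growth inhibition of ECC4 cells, read out with a cell viability assay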
Description: SANGER: Inhibition of human ECC4 cell growth in a cell viability assay.

[22] = tested on: NCI-H2228; experiment: cells; format: functional, cell-based, Homo sapiens; settings: Homo sapiens, NCI-H2228;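 further: growth inhibition of human NCI-H2228 cells, read out by a cell viability assay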
Description: SANGER: Inhibition of human NCI-H2228 cell growth in a cell viability assay.

[23] = tested on: HCT-15; experiment: cells; format: functional, cell-based, Homo sapiens; settings: Homo sapiens, HCT-15;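 further: cell viability readout, IC50 reflecting suppression of HCT-15 cell growth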
Description: SANGER: Inhibition of human HCT-15 cell growth in a cell viability assay.

[24] = tested on: RPMI-8226; experiment: cells; format: functional, cell-based; settings: Homo sapiens
Description: SANGER: Inhibition of human RPMI-8226 cell growth in a cell viability assay.

[25] = tested on: HCC70; experiment: cells; format: functional, cell-based, Homo sapiens; settings: Homo sapiens, HCC70;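 further: cell viability assay measuring how strongly the compound suppresses proliferation of HCC70 cells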
Description: SANGER: Inhibition of human HCC70 cell growth in a cell viability assay.

[26] = tested on: MZ1-PC; experiment: cells; format: functional, cell-based, Homo sapiens; settings: Homo sapiens, MZ1-PC;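 further: cell viability assay measuring growth inhibition of human MZ1-PC cells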
Description: SANGER: Inhibition of human MZ1-PC cell growth in a cell viability assay.

[27] = tested on: NCI-H748; experiment: cells; format: functional, cell-based; settings: Homo sapiens;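 further: growth inhibition of NCI-H748 cells, measured by a cell viability assay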
Description: SANGER: Inhibition of human NCI-H748 cell growth in a cell viability assay.

[28] = tested on: NCI-H1417; experiment: cells; format: functional, cell-based; settings: Homo sapiens;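 further: human NCI-H1417 cells, growth inhibition determined with a cell viability readout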
Description: SANGER: Inhibition of human NCI-H1417 cell growth in a cell viability assay.

[29] = tested on: MHH-CALL-2; experiment: cells; format: functional, cell-based; settings: Homo sapiens;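 further: growth inhibition of the cell line, read out in a cell viability assay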
Description: SANGER: Inhibition of human MHH-CALL-2 cell growth in a cell viability assay.

[30] = tested on: BE-13; experiment: cells; format: functional, cell-based; settings: Homo sapiens;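 further: growth inhibition of human BE-13 cells, measured with a cell viability assay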
Description: SANGER: Inhibition of human BE-13 cell growth in a cell viability assay.

[31] = tested on: NCI-H2081; experiment: cells; format: functional, cell-based; settings: Homo sapiens;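 further: growth inhibition of human NCI-H2081 cells, read out with a cell viability assay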
Description: SANGER: Inhibition of human NCI-H2081 cell growth in a cell viability assay.

[32] = tested on: DMS-153; experiment: cells; format: functional, cell-based; settings: Homo sapiens
Description: SANGER: Inhibition of human DMS-153 cell growth in a cell viability assay.

[33] = tested on: MC-IXC; experiment: cells; format: functional, cell-based, Homo sapiens; settings: Homo sapiens, MC-IXC;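 further: growth inhibition of MC-IXC cells, read out with a cell viability assay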
Description: SANGER: Inhibition of human MC-IXC cell growth in a cell viability assay.

[34] = tested on: REH; experiment: cells; format: functional, cell-based; settings: Homo sapiens;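 further: growth inhibition of REH cells determined with a cell viability read-out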
Description: SANGER: Inhibition of human REH cell growth in a cell viability assay.

[35] = tested on: PF-382; experiment: cells; format: functional, cell-based; settings: Homo sapiens
Description: SANGER: Inhibition of human PF-382 cell growth in a cell viability assay.

[36] = tested on: SW756; experiment: cells; format: functional, cell-based, Homo sapiens; settings: Homo sapiens, SW756;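 further: growth inhibition of human SW756 cells, read out with a cell viability assay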
Description: SANGER: Inhibition of human SW756 cell growth in a cell viability assay.

[37] = tested on: Daudi; experiment: cells; format: functional, cell-based; settings: Homo sapiens;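 further: growth inhibition of Daudi cells, read out by a viability assay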
Description: SANGER: Inhibition of human Daudi cell growth in a cell viability assay.

[38] = tested on: SK-N-AS; experiment: cells; format: functional, cell-based, Homo sapiens; settings: Homo sapiens, SK-N-AS;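 further: growth inhibition of human SK-N-AS cells, measured with a cell viability assay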
Description: SANGER: Inhibition of human SK-N-AS cell growth in a cell viability assay.

[39] = tested on: NY; experiment: cells; format: functional, cell-based, Homo sapiens; settings: Homo sapiens, NY
Description: SANGER: Inhibition of human NY cell growth in a cell viability assay.

[40] = tested on: SNU-423; experiment: cells; format: functional, cell-based, Homo sapiens; settings: Homo sapiens, SNU-423
Description: SANGER: Inhibition of human SNU-423 cell growth in a cell viability assay.

[41] = tested on: LU-99A; experiment: cells; format: functional, cell-based, Homo sapiens; settings: Homo sapiens, LU-99A;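 further: growth inhibition of LU-99A cells, read out with a cell viability assay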
Description: SANGER: Inhibition of human LU-99A cell growth in a cell viability assay.

[42] = tested on: BC1 cell line; experiment: SANGER: Inhibition of human BC-1 cell growth in a cell viability assay.; format: functional, cell-based
[43] = tested on: RPMI-6666; experiment: cells; format: functional, cell-based; settings: Homo sapiens
Description: SANGER: Inhibition of human RPMI-6666 cell growth in a cell viability assay.

[44] = tested on: SIMA; experiment: cells; format: functional, cell-based, Homo sapiens; settings: Homo sapiens, SIMA;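 further: growth inhibition of SIMA cells, measured with a cell viability readout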
Description: SANGER: Inhibition of human SIMA cell growth in a cell viability assay.

[45] = tested on: TE-441-T; experiment: cells; format: functional, cell-based; settings: Homo sapiens
Description: SANGER: Inhibition of human TE-441-T cell growth in a cell viability assay.

[46] = tested on: LP-1; experiment: cells; format: functional, cell-based; settings: Homo sapiens;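 further: growth inhibition of human LP-1 cells, with the read-out taken from a cell viability assay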
Description: SANGER: Inhibition of human LP-1 cell growth in a cell viability assay.

[47] = tested on: HCT-116; experiment: cells; format: functional, cell-based, Homo sapiens; settings: Homo sapiens, HCT-116
Description: SANGER: Inhibition of human HCT-116 cell growth in a cell viability assay.

[48] = tested on: SBC-1; experiment: cells; format: functional, cell-based; settings: Homo sapiens;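 further: cell viability assay measuring growth inhibition of the SBC-1 cell line, IC50 being the concentration that halves growth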
Description: SANGER: Inhibition of human SBC-1 cell growth in a cell viability assay.

Measured: IC50

Cn1cncc1[C@@](N)(c1ccc(Cl)cc1)c1ccc2c(c1)c(-c1cccc(Cl)c1)cc(=O)n2C [TIPIFARNIB]
9030 nM: [24]
10600 nM: [29]
705 nM: [40]
1710 nM: [35]
4940 nM: [30]
7090 nM: [41]
11500 nM: [5]
2110 nM: [12]
130 nM: [42]
4980 nM: [22]
1050 nM: [25]
2640 nM: [1]
4880 nM: [47]
8710 nM: [8]
12000 nM: [3]
< 62.5 nM: [43]
14800 nM: [20]
12500 nM: [11]
1930 nM: [39]
2500 nM: [37]
13600 nM: [36]
59.2 nM: [34]
327 nM: [23]
3990 nM: [19]
2820 nM: [26]
36.2 nM: [7]
2760 nM: [33]
> 16000 nM: all other assays above

C[C@]1(O)C[C@@H](c2nc(-c3ccc4ccc(-c5ccccc5)nc4c3)c3c(N)nccn32)C1 [LINSITINIB]
2260 nM: [46]
1070 nM: [44]
1260 nM: [3]
864 nM: [10]
1990 nM: [33]
508 nM: [8]
1770 nM: [14]
> 2560 nM: all other assays above

CO[C@H]1C[C@@H]2CC[C@@H](C)[C@@](O)(O2)C(=O)C(=O)N2CCCC[C@H]2C(=O)O[C@H]([C@H](C)C[C@@H]2CC[C@@H](O)[C@H](OC)C2)CC(=O)[C@H](C)/C=C(\C)[C@@H](O)[C@@H](OC)C(=O)[C@H](C)C[C@H](C)/C=C/C=C/C=C/1C [SIROLIMUS]
1.19 nM: [24]
44.8 nM: [21]
2.99 nM: [30]
31.3 nM: [42]
0.434 nM: [37]
24.4 nM: [43]
96.8 nM: [35]
53.5 nM: [11]
not listed: [3] | [8] | [10] | [16] | [22] | [23] | [25] | [33] | [36] | [38] | [39] | [40] | [41] | [47]
> 100 nM: all other assays above

Cc1cc(Nc2cc(N3CCN(C)CC3)nc(Sc3ccc(NC(=O)C4CC4)cc3)n2)n[nH]1 [TOZASERTIB]
215 nM: [14]
1130 nM: [48]
3.38 nM: [30]
355 nM: [15]
25.5 nM: [7]
not listed: [3] | [8] | [10] | [16] | [22] | [23] | [25] | [33] | [36] | [38] | [39] | [40] | [41] | [47]
> 2000 nM: all other assays above
